Source: US8952024B2, “Herbicidal pyrimidone derivatives” (E I du Pont de Nemours and Company, priority 2009, dated 2015)

Experiments:
Type in all cases: in vivo
[1] = system: wheat (Triticum aestivum); assay: Test A pre-/postemergence plant response
Procedure, shortened: (§1)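 Seeds planted in loam soil/sand blend; test chemicals in non-phytotoxic solvent mixture with surfactant applied as directed soil spray preemergence and, concurrently, postemergence to plants 2–10 cm tall at one- to two-leaf stage. Greenhouse ~10 days; visual injury vs untreated controls, 0 (no effect) to 100 (complete control).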

[2] = system: giant foxtail (Setaria faberii); assay: Test A pre-/postemergence plant response
Procedure, shortened: as §1

[3] = system: velvetleaf (Abutilon theophrasti); assay: Test A pre-/postemergence plant response
Procedure, shortened: as §1

[4] = system: morningglory (Ipomoea spp.); assay: Test A pre-/postemergence plant response
Procedure, shortened: as §1

[5] = system: barnyardgrass (Echinochloa crus-galli); assay: Test A pre-/postemergence plant response
Procedure, shortened: as §1

[6] = system: corn (Zea mays); assay: Test A pre-/postemergence plant response
Procedure, shortened: as §1

[7] = system: large crabgrass (Digitaria sanguinalis); assay: Test A pre-/postemergence plant response
Procedure, shortened: as §1

[8] = system: pigweed (Amaranthus retroflexus); assay: Test A pre-/postemergence plant response
Procedure, shortened: as §1

[9] = system: ducksalad (Heteranthera limosa); assay: Test B flooded paddy test; settings: for Plant response rating, Flood, Ducksalad: 250 g ai/ha, flooded paddy test, visual rating on 0 to 100 scale (0 no effect, 100 complete control) after 13 to 15 days; for Plant response rating, Ducksalad: Flood (flooded paddy test), 13 to 15 days
Procedure, shortened: (§2)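 Greenhouse-held for 13 to 15 days, treated pots were compared visually with controls and scored 0–100 (0, no effect). Treatment had been made into paddy water kept at 3 cm above the soil, with plants at the 2-leaf stage.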

[10] = system: barnyardgrass (Echinochloa crus-galli); assay: Test B flooded paddy test; settings: for Plant response rating, Flood, Barnyardgrass: 250 g ai/ha, flooded paddy test, visual rating on 0 to 100 scale (0 no effect, 100 complete control) after 13 to 15 days; for Plant response rating, Barnyardgrass: Flood (flooded paddy test), 13 to 15 days
Procedure, shortened: as §2

[11] = system: umbrella sedge (Cyperus difformis); assay: Test B flooded paddy test; settings: for Plant response rating, Flood, Sedge, Umbrella: 250 g ai/ha, flooded paddy test, visual rating on 0 to 100 scale (0 no effect, 100 complete control) after 13 to 15 days; for Plant response rating, Sedge, Umbrella: Flood (flooded paddy test), 13 to 15 days
Procedure, shortened: as §2

[12] = system: rice (Oryza sativa); assay: Test B flooded paddy test; settings: for Plant response rating, Flood, Rice: 250 g ai/ha, flooded paddy test, visual rating on 0 to 100 scale (0 no effect, 100 complete control) after 13 to 15 days; for Plant response rating, Rice: Flood (flooded paddy test), 13 to 15 days
Procedure, shortened: as §2

[13] = Postemergence, 125 g ai/ha, visual injury, 0 to 100 scale (0 no effect, 100 complete control), approx. ten days
[14] = Postemergence, 500 g ai/ha, 0 to 100 scale, 0 = no effect, 100 = complete control, approx. ten days
[15] = Preemergence, 125 g ai/ha, 0 to 100 scale, 0 = no effect, 100 = complete control
[16] = Preemergence, 500 g ai/ha, visual injury, 0 to 100 scale (0 no effect, 100 complete control), approx. ten days
[17] = 62 g ai/ha, scale of 0 to 100 where 0 is no effect and 100 is complete control
[18] = 125 g ai/ha, scale 0 to 100, 0 is no effect, 100 is complete control
[19] = Flood, 31 g ai/ha, scale 0 to 100 (0 no effect, 100 complete control)
[20] = Postemergence, 125 g ai/ha, 0 to 100 scale where 0 is no effect and 100 is complete control

SMILES: O=C1CCCC(O)=C1C(=O)c1cnc(-c2ccccc2Br)n(-c2ccccc2)c1=O [Compound 71]
- Wheat plant response rating [1, 13]: 0
- Plant response rating, Wheat [1, 14]: 0
- Plant response rating, Wheat [1, 15]: 0
- Plant response rating, Wheat [1, 16]: 0
- Foxtail, Giant plant response rating [2, 13]: 20
- Plant response rating, Foxtail, Giant [2, 14]: 60
- Plant response rating, Foxtail, Giant [2, 15]: 0
- Plant response rating, Foxtail, Giant [2, 16]: 10
- Velvetleaf plant response rating [3, 13]: 100
- Plant response rating, Velvetleaf [3, 14]: 100
- Plant response rating, Velvetleaf [3, 15]: 50
- Plant response rating, Velvetleaf [3, 16]: 70
- Morningglory plant response rating [4, 13]: 80
- Plant response rating, Morningglory [4, 14]: 100
- Plant response rating, Morningglory [4, 15]: 0
- Plant response rating, Morningglory [4, 16]: 0
- Barnyardgrass plant response rating [5, 13]: 0
- Plant response rating, Barnyardgrass [5, 14]: 60
- Plant response rating, Barnyardgrass [5, 15]: 0
- Plant response rating, Barnyardgrass [5, 16]: 0
- Corn plant response rating [6, 13]: 0
- Plant response rating, Corn [6, 14]: 20
- Plant response rating, Corn [6, 15]: 0
- Plant response rating, Corn [6, 16]: 0
- Crabgrass, Large plant response rating [7, 13]: 30
- Plant response rating, Crabgrass, Large [7, 14]: 80
- Plant response rating, Crabgrass, Large [7, 15]: 10
- Plant response rating, Crabgrass, Large [7, 16]: 50
- Pigweed plant response rating [8, 13]: 70
- Plant response rating, Pigweed [8, 14]: 100
- Plant response rating, Pigweed [8, 16]: 90
- Plant response rating, Flood, Ducksalad [9]: 0
- Plant response rating, Ducksalad [9, 17]: 0
- Plant response rating, Ducksalad [9, 18]: 0
- Ducksalad plant response rating [9, 19]: 0
- Plant response rating, Flood, Barnyardgrass [10]: 0
- Plant response rating, Barnyardgrass [10, 17]: 0
- Plant response rating, Barnyardgrass [10, 18]: 0
- Barnyardgrass plant response rating [10, 19]: 0
- Plant response rating, Flood, Sedge, Umbrella [11]: 25
- Plant response rating, Sedge, Umbrella [11, 17]: 0
- Plant response rating, Sedge, Umbrella [11, 18]: 0
- Sedge, Umbrella plant response rating [11, 19]: 0
- Plant response rating, Flood, Rice [12]: 0
- Plant response rating, Rice [12, 17]: 0
- Plant response rating, Rice [12, 18]: 0
- Rice plant response rating [12, 19]: 0

SMILES: CCCc1ncc(C(=O)C2=C(O)CCCC2=O)c(=O)n1-c1ccccc1C [Compound 73]
- Plant response rating, Wheat [1, 20]: 10
- Plant response rating, Wheat [1, 14]: 50
- Plant response rating, Wheat [1, 15]: 10
- Plant response rating, Wheat [1, 16]: 30
- Plant response rating, Foxtail, Giant [2, 20]: 80
- Plant response rating, Foxtail, Giant [2, 14]: 90
- Plant response rating, Foxtail, Giant [2, 15]: 50
- Plant response rating, Foxtail, Giant [2, 16]: 70
- Plant response rating, Velvetleaf [3, 20]: 100
- Plant response rating, Velvetleaf [3, 14]: 100
- Plant response rating, Velvetleaf [3, 15]: 80
- Plant response rating, Velvetleaf [3, 16]: 100
- Plant response rating, Morningglory [4, 20]: 100
- Plant response rating, Morningglory [4, 14]: 100
- Plant response rating, Morningglory [4, 15]: 10
- Plant response rating, Morningglory [4, 16]: 80
- Plant response rating, Barnyardgrass [5, 20]: 70
- Plant response rating, Barnyardgrass [5, 14]: 90
- Plant response rating, Barnyardgrass [5, 15]: 0
- Plant response rating, Barnyardgrass [5, 16]: 70
- Plant response rating, Corn [6, 20]: 30
- Plant response rating, Corn [6, 14]: 60
- Plant response rating, Corn [6, 15]: 0
- Plant response rating, Corn [6, 16]: 0
- Plant response rating, Crabgrass, Large [7, 20]: 90
- Plant response rating, Crabgrass, Large [7, 14]: 90
- Plant response rating, Crabgrass, Large [7, 15]: 70
- Plant response rating, Crabgrass, Large [7, 16]: 100
- Plant response rating, Pigweed [8, 20]: 100
- Plant response rating, Pigweed [8, 14]: 100
- Plant response rating, Pigweed [8, 15]: 100
- Plant response rating, Pigweed [8, 16]: 100
- Plant response rating, Flood, Ducksalad [9]: 0
- Plant response rating, Ducksalad [9, 17]: 0
- Plant response rating, Flood, Barnyardgrass [10]: 0
- Plant response rating, Barnyardgrass [10, 17]: 0
- Plant response rating, Flood, Sedge, Umbrella [11]: 0
- Plant response rating, Sedge, Umbrella [11, 17]: 0
- Plant response rating, Flood, Rice [12]: 0
- Plant response rating, Rice [12, 17]: 0
